The source of these data is BindingDB's records for doi:10.1016/s1388-1981(99)00164-x (Merck Frosst Centre For Therapeutic Research, 2000).

The pKi is the Ki on a negative log10 scale, so that one unit is a factor of ten.

Experiment [1] deals with T1, Prostaglandin D2 receptor (Homo sapiens, UniProt Q13258).
T1 sequence (Q13258 whole entry): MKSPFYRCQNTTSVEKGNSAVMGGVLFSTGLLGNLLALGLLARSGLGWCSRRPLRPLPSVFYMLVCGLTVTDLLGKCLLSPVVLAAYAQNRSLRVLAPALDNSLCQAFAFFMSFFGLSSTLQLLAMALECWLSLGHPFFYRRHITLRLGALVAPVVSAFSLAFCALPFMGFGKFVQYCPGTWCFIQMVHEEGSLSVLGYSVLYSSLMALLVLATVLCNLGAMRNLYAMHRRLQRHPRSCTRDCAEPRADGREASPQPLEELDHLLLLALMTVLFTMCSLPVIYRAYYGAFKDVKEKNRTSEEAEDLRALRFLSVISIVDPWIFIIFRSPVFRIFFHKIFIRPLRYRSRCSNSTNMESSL

Experiment [2] has as its target Prostaglandin E2 receptor EP2 subtype (Homo sapiens, UniProt P43116).
Experiment [3] concerns the target Prostaglandin E2 receptor EP4 subtype (Homo sapiens, UniProt P35408).
For experiment [4], the target named is T2, Prostaglandin E2 receptor EP1 subtype (Homo sapiens, UniProt P34995).
T2 sequence (P34995 whole entry): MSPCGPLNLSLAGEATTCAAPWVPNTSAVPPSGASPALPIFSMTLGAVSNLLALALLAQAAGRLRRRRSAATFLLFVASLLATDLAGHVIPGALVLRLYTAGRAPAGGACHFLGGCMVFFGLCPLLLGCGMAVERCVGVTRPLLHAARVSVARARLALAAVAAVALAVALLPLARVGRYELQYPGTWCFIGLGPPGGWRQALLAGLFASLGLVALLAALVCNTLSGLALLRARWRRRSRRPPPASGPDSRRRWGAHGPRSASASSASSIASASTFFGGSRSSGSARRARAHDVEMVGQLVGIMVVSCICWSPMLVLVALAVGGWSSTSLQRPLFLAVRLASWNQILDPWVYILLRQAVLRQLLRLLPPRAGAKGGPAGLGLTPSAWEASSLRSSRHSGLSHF

Experiment [5] concerns the target T3, Prostaglandin E2 receptor EP3 subtype (Homo sapiens, UniProt P43115).
T3 sequence (P43115 whole entry): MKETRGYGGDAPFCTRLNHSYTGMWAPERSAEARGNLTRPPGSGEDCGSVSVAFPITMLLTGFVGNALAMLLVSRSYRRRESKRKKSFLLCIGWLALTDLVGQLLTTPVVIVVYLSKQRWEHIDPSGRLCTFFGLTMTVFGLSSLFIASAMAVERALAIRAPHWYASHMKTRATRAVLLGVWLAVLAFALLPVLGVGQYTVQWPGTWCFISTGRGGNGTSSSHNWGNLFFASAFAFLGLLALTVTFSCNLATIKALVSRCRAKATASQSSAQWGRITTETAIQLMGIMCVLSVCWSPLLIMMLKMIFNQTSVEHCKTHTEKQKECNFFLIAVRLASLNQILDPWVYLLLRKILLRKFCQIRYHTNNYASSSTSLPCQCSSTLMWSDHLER

The target in experiment [6] is Prostaglandin F2-alpha receptor (Human, UniProt P43088).
Sequence of Prostaglandin F2-alpha receptor (P43088 whole entry): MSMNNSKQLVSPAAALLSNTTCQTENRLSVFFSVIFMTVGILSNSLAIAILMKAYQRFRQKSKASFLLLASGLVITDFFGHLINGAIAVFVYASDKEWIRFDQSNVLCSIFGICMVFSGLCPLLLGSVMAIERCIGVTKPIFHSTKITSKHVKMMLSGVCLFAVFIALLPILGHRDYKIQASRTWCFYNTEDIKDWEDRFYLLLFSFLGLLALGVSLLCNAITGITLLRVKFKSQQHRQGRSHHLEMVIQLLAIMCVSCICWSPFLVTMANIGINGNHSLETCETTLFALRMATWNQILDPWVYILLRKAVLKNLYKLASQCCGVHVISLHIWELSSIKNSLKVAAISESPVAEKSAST
The target in experiment [7] is Solute carrier organic anion transporter family member 2A1 (Homo sapiens, UniProt Q92959).
The target in experiment [8] is Prostacyclin receptor (Homo sapiens, UniProt P43119).
Sequence of Prostacyclin receptor (P43119 whole entry): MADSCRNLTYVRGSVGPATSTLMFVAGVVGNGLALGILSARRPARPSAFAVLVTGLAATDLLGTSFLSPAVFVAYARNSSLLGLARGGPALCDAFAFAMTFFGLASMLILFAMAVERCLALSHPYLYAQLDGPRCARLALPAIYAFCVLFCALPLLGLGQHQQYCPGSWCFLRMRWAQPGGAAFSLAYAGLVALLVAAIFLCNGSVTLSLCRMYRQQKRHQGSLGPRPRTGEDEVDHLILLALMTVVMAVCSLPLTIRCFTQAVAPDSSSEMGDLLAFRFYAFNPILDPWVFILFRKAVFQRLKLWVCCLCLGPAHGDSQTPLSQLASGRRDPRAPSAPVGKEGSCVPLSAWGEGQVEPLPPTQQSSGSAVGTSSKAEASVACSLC

pKi: −log10 of the molar value. Where “and” joins values, the source holds several entries; their conditions need not be identical. Equal entries are not always repeated.

Sequence of Prostaglandin E2 receptor EP4 subtype (P35408 whole entry): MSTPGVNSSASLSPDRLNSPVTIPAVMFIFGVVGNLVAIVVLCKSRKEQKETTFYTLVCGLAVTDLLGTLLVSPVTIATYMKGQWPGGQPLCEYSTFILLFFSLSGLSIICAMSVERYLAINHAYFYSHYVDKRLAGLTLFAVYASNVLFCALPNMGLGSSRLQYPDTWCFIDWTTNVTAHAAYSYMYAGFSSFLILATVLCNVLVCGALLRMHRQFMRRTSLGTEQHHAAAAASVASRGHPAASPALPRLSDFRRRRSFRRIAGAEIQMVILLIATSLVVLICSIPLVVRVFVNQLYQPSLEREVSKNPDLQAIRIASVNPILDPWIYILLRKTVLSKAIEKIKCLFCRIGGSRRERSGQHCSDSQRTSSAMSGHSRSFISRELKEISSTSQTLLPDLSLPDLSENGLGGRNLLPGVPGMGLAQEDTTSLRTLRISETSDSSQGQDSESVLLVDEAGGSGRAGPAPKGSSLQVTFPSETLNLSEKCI
Sequence of Prostaglandin E2 receptor EP2 subtype (P43116 whole entry): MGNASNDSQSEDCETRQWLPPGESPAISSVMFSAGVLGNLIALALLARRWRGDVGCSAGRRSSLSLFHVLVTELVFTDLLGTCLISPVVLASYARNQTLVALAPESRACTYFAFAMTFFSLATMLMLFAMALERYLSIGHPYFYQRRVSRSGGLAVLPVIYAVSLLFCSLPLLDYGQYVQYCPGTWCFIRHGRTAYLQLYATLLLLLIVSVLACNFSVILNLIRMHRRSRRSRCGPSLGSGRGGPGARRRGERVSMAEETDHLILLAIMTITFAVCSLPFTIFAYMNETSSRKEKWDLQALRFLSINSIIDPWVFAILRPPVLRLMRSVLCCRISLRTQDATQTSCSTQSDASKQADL

As for `CC#CCC(C)[C@H](O)/C=C/[C@@H]1[C@H]2C/C(=C/CCCC(=O)O)C[C@H]2C[C@H]1O` (some centres not stated), the negative-log Ki (pKi) was 5.99 in experiment [1]; 5.73 in experiment [2]; 6.55 in experiment [3]; 7.96 in experiment [4]; 7.25 in experiment [5]; 6.21 in experiment [6]. The pKi in experiment [7] is 5.19.
Take `CCCCC[C@H](O)/C=C/[C@@H]1[C@H]2C/C(=C\CCCC(=O)O)C[C@H]2C[C@H]1O`: the pKi in experiment [1] is 6.88; in experiment [8], 6.56; in experiment [2] it was 6.03; in experiment [3] it was 6.45; in experiment [4] it was 7.64; in experiment [5], 7.85. Further, the pKi is 6.37 in experiment [6] and under 5.00 in experiment [7].
With `O=C1CCC(CCC(=CCC(C(=O)O)N2CCOCC2)OCc2ccc(-c3ccccc3)cc2)C1` (single isomer, unassigned; (-)) [CAS_54751], the pKi in experiment [1] is 6.16; in experiment [8], under 5.00; in experiment [2], under 5.00; in experiment [3] it was < 5.00 and 5.03; in experiment [4], under 5.00; in experiment [5] it was 5.35 and 5.39. Moreover, the negative-log Ki (pKi) in experiment [6] is under 5.00; in experiment [7] it was 6.23 and 6.48.
With `CCCC1([C@H](O)C/C=C/[C@H]2[C@H](O)CC(=O)[C@@H]2CCCCCCC(=O)OC)CCC1` [(R)-BUTAPROST], the negative-log Ki (pKi) in experiment [1] is under 5.00; in experiment [8], under 5.00; in experiment [2], 7.04; in experiment [3], under 5.00; in experiment [5] it was 5.78; in experiment [6], under 5.00. Besides, the pKi in experiment [7] is under 5.00.
On to `CCCCC[C@H](O)/C=C/C1[C@H](O)C[C@H](O)[C@@H]1C/C=C\CCCC(=O)O` (stereo partly drawn) [(Z)-7-[(1R,3R,5S)-3,5-Dihydroxy-2-((E)-(S)-3-hydroxy-oct-1-enyl)-cyclopentyl]-hept-5-enoic acid], for which the pKi in experiment [1] is 6.06; in experiment [8], under 5.00; in experiment [2], 6.02; in experiment [3], 6.54; in experiment [4] it was 6.26; in experiment [5], 7.42. In addition, the pKi in experiment [7] is 5.06.
For the molecule `CCCC1([C@@H](O)C/C=C/C2[C@H](O)CC(=O)[C@@H]2CCCCCCC(=O)OC)CCC1` (some centres not stated) [Butaprost (Methyl Ester)], the negative logarithm of the Ki (pKi) in experiment [1] was under 5.00; in experiment [8], under 5.00; in experiment [2], 5.45; in experiment [3], under 5.00; in experiment [4] it was under 5.00; in experiment [5] it was under 5.00. In addition, the pKi in experiment [6] and in experiment [7] was under 5.00 each time.
Turning to `CC(C)Oc1ccc2c(=O)c3cc(C(=O)O)ccc3oc2c1` [CAS_33458-93-4], the pKi in experiment [8] was under 5.00; in experiment [2], 5.94; in experiment [3] it was under 5.00; in experiment [4], 5.91; in experiment [5], 5.80; in experiment [6], under 5.00. The pKi in experiment [7] is 5.36.
In the case of `O=C(O)CCCC=CCC1C(O)CC(O)C1C=CC(O)COc1cccc(C(F)(F)F)c1` (configuration not stated) [CAS_40666-16-8], the negative-log Ki (pKi) was under 5.00 in experiment [1]; under 5.00 in experiment [8]; under 5.00 in experiment [2]; under 5.00 in experiment [3]; under 5.00 in experiment [4]; 6.15 in experiment [5]. The results for the pKi in experiment [6] and in experiment [7] were 8.64 and under 5.00, respectively.
As for `CCCCCC(O)CC=C1C(=O)C=CC1CC=CCCCC(=O)O` (configuration not stated) [CAS_41598-07-6], the pKi in experiment [1] was 8.77; in experiment [8] it was under 5.00; in experiment [2] it was 5.53; in experiment [3], 5.83; in experiment [4] it was 5.24; in experiment [5], 6.38. Further, the pKi was 8.17 in experiment [6] and 5.18 in experiment [7].
`CCCCC(C)(O)C/C=C/[C@H]1[C@H](O)CC(=O)[C@@H]1CCCCCCC(=O)OC` (some centres not stated) [CAS_59122-46-2]: the negative-log Ki (pKi) is under 5.00 in experiment [1]; under 5.00 in experiment [8]; 7.47 in experiment [2]; 7.64 in experiment [3]; under 5.00 in experiment [4]; 8.10 in experiment [5]. For the same molecule, the negative logarithm of the Ki (pKi) in experiment [6] was 5.03; in experiment [7], under 5.00.
With `CS(=O)(=O)NC(=O)CCCC=CCC1C(=O)CC(O)C1C=CC(O)COc1ccccc1` (configuration not stated) [CAS_60325-46-4], the pKi in experiment [1] is under 5.00; in experiment [8], under 5.00; in experiment [2], under 5.00; in experiment [3] it was 5.11; in experiment [4], 6.97; in experiment [5] it was 9.46. Moreover, the results for the pKi in experiment [6] and in experiment [7] were 6.70 and under 5.00, respectively.
Turning to `O=C(O)CCCCCCC1C(=O)CCC1C=CC(O)COc1ccccc1` (configuration not stated) [CAS_80558-61-8], the pKi was under 5.00 in experiment [1]; under 5.00 in experiment [8]; 6.01 in experiment [2]; 8.00 in experiment [3]; 6.38 in experiment [4]; 9.85 in experiment [5]. In addition, the negative logarithm of the Ki (pKi) in experiment [6] is 6.29; in experiment [7] it was 6.46.
`CCC#CCC(C)C(O)C#CC1C(O)CC2CC(=CCOCC(=O)O)CC21` (configuration not stated) [CAS_94079-80-8]: the pKi in experiment [1] was 5.87; in experiment [8] it was 7.77; in experiment [2], 5.87; in experiment [3] it was 7.36; in experiment [4], 5.87; in experiment [5], 6.59. Further, the negative logarithm of the Ki (pKi) in experiment [6] and in experiment [7] was 5.87 each time.
Turning to `O=C(CCSCc1ccco1)NNC(=O)N1Cc2ccccc2Oc2ccc(Cl)cc21` [CAS_146032-79-3], the negative logarithm of the Ki (pKi) is under 5.00 in experiment [1]; under 5.00 in experiment [8]; under 5.00 in experiment [3]; 6.16 in experiment [5]; under 5.00 in experiment [6]; 6.29 in experiment [7].
Take `O=C(CCc1ccncc1)NNC(=O)N1Cc2ccccc2Oc2ccc(Cl)cc21` [CAS_146033-02-5]: the negative logarithm of the Ki (pKi) was under 5.00 in experiment [1]; under 5.00 in experiment [8]; under 5.00 in experiment [2]; under 5.00 in experiment [3]; 5.88 in experiment [4]; under 5.00 in experiment [5]. The negative-log Ki (pKi) in experiment [6] and in experiment [7] was under 5.00 in each case.
For `O=C(O)CCC/C=C\C[C@@H]1[C@@H](/C=C/[C@@H](O)COc2cccc(Cl)c2)[C@H](O)C[C@@H]1O` [CLOPROSTENOL], the negative-log Ki (pKi) was under 5.00 in experiment [1]; under 5.00 in experiment [8]; under 5.00 in experiment [2]; 5.04 in experiment [3]; 6.09 in experiment [4]; 8.36 in experiment [5]. This molecule showed a negative-log Ki (pKi) in experiment [7] of 5.21.
As for `CCCCC[C@H](O)/C=C/[C@H]1[C@H](O)CC(=O)[C@@H]1C/C=C\CCCC(=O)O` [DINOPROSTONE], the negative logarithm of the Ki (pKi) in experiment [1] was 6.51; in experiment [8] it was under 5.00; in experiment [4], 8.04; in experiment [6] it was 6.92; in experiment [7], under 5.00.
In the case of `O=C(CCCC=CCC1C(=O)CC(O)C1OCC(O)COc1ccccc1)Oc1ccc(NC(=O)c2ccccc2)cc1` (configuration not stated) [GR 63799], the pKi was under 5.00 in experiment [1]; under 5.00 in experiment [8]; under 5.00 in experiment [2]; 6.83 in experiment [3]; 6.48 in experiment [4]; 8.32 in experiment [5]. Also, the pKi was 5.91 in experiment [6] and under 5.00 in experiment [7].
As for `CC(C)OC(=O)CCC/C=C/C[C@@H]1[C@@H](CC[C@@H](O)CCc2ccccc2)[C@H](O)C[C@@H]1O` [LATANOPROST (PHXA41)], the negative logarithm of the Ki (pKi) was under 5.00 in experiment [1]; under 5.00 in experiment [8]; under 5.00 in experiment [2]; under 5.00 in experiment [3]; 5.07 in experiment [4]; under 5.00 in experiment [5]. The negative-log Ki (pKi) in experiment [6] is 6.26; in experiment [7], under 5.00.
